Results as given in patent publication US9102648B1, “Bioavailable diacylhydrazine ligands for modulating the expression of exogenous genes via an ecdysone receptor complex” (Intrexon Corporation, priority 2003, dated 2015).
Where two headings read alike, the source gives them in different places.

Assays:
[1] = Determination of LC Log P (experimental); type: physicochemical; conditions: diacylhydrazine log P standards (log P known experimentally)
Method: Liquid chromatography retention times (RT) are measured for each substance using the conditions described below. A linear equation is derived relating RT to log P is developed from the data for the log P standards. The log P for the test compound is calculated from the log P/retention time equation.

[2] = Partition coefficient Log (D), 1-octanol / pH 7.4 buffer; type: physicochemical; conditions: water-saturated 1-octanol / pH 7.4 buffer, room temperature
Method: The partition coefficient, Log (D), between water-saturated 1-octanol and pH 7.4 buffer was determined for the test compounds. The buffer was prepared as described in section 2. A 12 μl aliquot of a 10 mM stock solution in DMSO was introduced to a vial containing 0.60 mL of octanol and 0.60 mL of buffer at room temperature. Testosterone was also added to a final concentration of 100 μM as an internal control. The solution was vortexed for 60 minutes and centrifuged at 10,000 rpm for 10 minutes. The organic and aqueous layers were removed. Serial dilutions of the organic layer were made with 50% methanol except for the initial dilution, which was made in 100% methanol. Serial dilutions of the aqueous layer were made in the pH 7.4 buffer. The diluted samples were then assayed by LC/MS for the compound as well as for testosterone. The Log of the ratio of peak area responses was calculated to obtain the Log (D). Typical Log D values for testosterone are from 3.0-3.3.

Caco-2 monolayers = test: Bi-directional permeability, CACO-2; type: in vitro ADME; conditions: for Papp B-A / Papp A-B Ratio: Caco-2 efflux ratio
Method: (§1) Caco-2 monolayers were grown to confluence on collagen-coated, microporous, polycarbonate membranes in 12-well Costar Transwell plates. Details of the plates and their certification are shown below. The permeability assay buffer was Hank's Balanced Salt Solution containing 10 mM HEPES and 15 mM glucose at a pH of 7.0±0.2. The dosing solution concentration was 10 μM in assay buffer. At each time point, 1 and 2 hours, a 200-μL aliquot was taken from the receiver chamber and replaced with fresh assay buffer. Cells were dosed on the apical side (A-to-B) or basolateral side (B-to-A) and incubated at 37° C. with 5% CO2 and 90% relative humidity. Each determination was performed in duplicate. The important experimental parameters are outlined below. Permeability through a cell-free (blank) membrane was studied to determine non-specific binding and free diffusion of the compound through the device. Lucifer yellow flux was also measured for each monolayer after being subjected to the test compounds to ensure no damage was inflicted to the cell monolayers during the flux period.
(§2) All samples were assayed by LC/MS using electrospray ionization. Typical LC/MS conditions are as follows:
(§3) dCr/dt is the cumulative concentration in the receiver compartment versus time in M s^−1.
(§4) Vr is the volume of the receiver compartment in cm^3.
(§5) Vd is the volume of the donor compartment in cm^3.
(§6) A is the area of the cell monolayer (1.13 cm^2 for 12-well Transwell).
(§7) C0 is the concentration of the dosing solution in M.
(§8) Cr^final is the cumulative receiver concentration in M at the end of the incubation period.
(§9) Cd^final is the concentration of the donor in M at the end of the incubation period.

[3] = Bi-directional permeability, CACO-2; type: in vitro ADME
Method: as §1, §2, §3, §4, §5, §6, §7, §8, §9

[4] = system: mutated ecdysone receptor-based gene switch; test: In vivo SEAP induction, ligand by IP injection; parameters: species or system C57BL/6 mouse
Method: Applicants' ligands are useful in various applications including gene therapy, expression of proteins of interest in host cells, production of transgenic organisms, and cell-based assays. In vivo induction of a reporter enzyme with various ligands of the present invention was evaluated in a C57BL/6 mouse model system containing a gene switch.
Each element of the gene switch was on a separate plasmid. Receptor expression was under the control of a CMV promoter (SEQ ID NO: 15). Induction was evaluated by the amount of reporter protein expressed in the presence of ligand.
SEAP expression in serum of mice was evaluated after electroporation of the gene switch into mouse quadriceps. Mice were anesthetized with 2 μL/g of a mixture of ketamine (100 mg/mL) and xylazine (20 mg/mL). Animals were then shaved, DNA vectors injected into the muscle in a volume of 2×50 μL polyglutamic acid (12 mg/mL water), electrode conductivity gel applied, and an electrode caliber (1 cm×1 cm; model 384) was placed on hind leg. The muscle was electroporated with 200 V/cm, 8 times, for 20 msec/pulse, at 1 sec time intervals. The transverse electrical field direction was reversed after the animals received half of the pulses. Electroporation was performed with an ECM 830 electroporator from BTX Molecular Delivery Systems.
In some experiments mice received an intraperitoneal injection (IP) of 2.6 μmol of ligand in 50 μL of DMSO 3 days after electroporation of the gene switch. In other experiments the concentration of ligand was decrease to 26 nmol/50 μL of DMSO/mouse. SEAP expression was evaluated 2-11 days after ligand administration. In other experiments ligand was administered in rodent chow. The chow was prepared by dissolving 2 g of ligand in 20 mL of acetone and adding it to 1 kg of LabDiet 5010 autoclavable chow from Purina Mills. This was thoroughly mixed in a Hobart mixer and then mixed for an additional 15 min in a Cross Blend mixer. Animals received chow ad libitum for 1, 2, or 3 days. All values are the average from four animals. Background SEAP in sera from animals treated with vector alone without ligand addition was 0-11 ng/mL serum.
Mouse serum was obtained by centrifugation of blood acquired by retroorbital bleeding with a small glass capillary tube. SEAP quantification was determined using a Clontech Great Escape chemiluminescence kit and by comparison with the Clontech SEAP standard.
Table 9: In vivo evaluation of ligand-mediated induction of a mutated ecdysone receptor-based gene switch. SEAP expression in serum of mice was evaluated after electroporation of the gene expression cassettes into mouse quadriceps. Mice received an IP injection of 2.6 μmol of ligand 3 days after electroporation. SEAP expression was evaluated 2-11 days after ligand administration. Each dose group was composed of four animals. Percentage of GS™-E ligand induction was determined by averaging SEAP expression from four animals divided by the average SEAP expression induced with GS™-E ligand and then multiplying by 100.
Table 10: Induction of gene switch expression with low concentrations of ligand. SEAP expression in serum of mice was evaluated after electroporation of the gene expression cassettes into mouse quadriceps. Mice received an IP injection of 26 nmol of ligand or 130 nmol GS™-E ligand 3 days after electroporation. SEAP expression was evaluated 2-7 days after ligand administration. Values are the average from 4 animals.

| SMILES | Log(D) Octanol/pH 7.4 [2] | Papp Blank (Caco-2 monolayers; Caco-2) | Papp, A-to-B Avg (Caco-2 monolayers; Caco-2) | Papp, A-to-B Rep. 1 (Caco-2 monolayers; Caco-2) | Papp, A-to-B Rep. 2 (Caco-2 monolayers; Caco-2) | Papp, B-to-A Avg (Caco-2 monolayers; Caco-2) | Papp, B-to-A Rep. 1 (Caco-2 monolayers; Caco-2) | Papp, B-to-A Rep. 2 (Caco-2 monolayers; Caco-2) | Significant Efflux (Caco-2 monolayers; Caco-2) | Papp B-A / Papp A-B Ratio (Caco-2 monolayers) | other results |
| --- | --- | --- | --- | --- | --- | --- | --- | --- | --- | --- | --- |
| COc1cccc(C(=O)NN(C(=O)c2cc(C)cc(C)c2)C(C)(C)C)c1C [RG-102398] | 3.5 | – | – | – | – | – | – | – | – | – | logP [1]: 3.7; Absorption Potential (Caco-2 monolayers; classification from Papp(A-to-B)): High (Papp(A-to-B) ≧ 1.0 × 10^−6 cm/s High); Significant Efflux (Caco-2 monolayers; classification from Papp(B-to-A) and ratio): No; recovery at 2 h, 10 μM ([3]; Caco-2, pH 7, Percent Recovery Blank): 94%; Papp at 2 h, 10 µM ([3]; Caco-2, pH 7, cell-free (blank) membrane, 10 μM, read-out: Papp Blank): 34.7 ×10⁻⁶ cm/s; efflux ratio at 2 h, 10 μM ([3]; human, Caco-2, pH 7): 1; Papp A→B at 2 h, 10 µM ([3]; human, Caco-2, pH 7, Caco-2, 10 μM, average of 2 replicates, read-out: Papp, A-to-B Avg): 26.9 ×10⁻⁶ cm/s; Papp A→B at 2 h, 10 µM ([3]; human, Caco-2, pH 7, Caco-2, 10 μM, replicate 2, read-out: Papp, A-to-B Rep. 2): 26.8 ×10⁻⁶ cm/s; Papp B→A at 2 h, 10 µM ([3]; human, Caco-2, pH 7, Caco-2, 10 μM, replicate 2, read-out: Papp, B-to-A Rep. 2): 28.2 ×10⁻⁶ cm/s; Papp A→B at 2 h, 10 µM ([3]; human, Caco-2, pH 7, Papp, A-to-B Rep. 1): 27 ×10⁻⁶ cm/s; Papp B→A at 2 h, 10 µM ([3]; human, Caco-2, pH 7, Papp, B-to-A Avg): 27.1 ×10⁻⁶ cm/s; Papp B→A at 2 h, 10 µM ([3]; human, Caco-2, pH 7, Papp, B-to-A Rep. 1): 25.9 ×10⁻⁶ cm/s; recovery at 2 h, 10 μM ([3]; human, Caco-2, pH 7, Percent Recovery A-to-B): 85%; recovery at 2 h, 10 μM ([3]; human, Caco-2, pH 7, Percent Recovery B-to-A): 90% |
| CCc1c(C(=O)NN(C(=O)c2ccc(F)c(C(F)(F)F)c2)C(C)(C)C)ccc2c1OCCO2 [RG-115280] | 3.9 | 1.88 10^−6 cm/s | 1.27 10^−6 cm/s | 1.24 10^−6 cm/s | 1.30 10^−6 cm/s | 1.49 10^−6 cm/s | 1.50 10^−6 cm/s | 1.48 10^−6 cm/s | No | 1.2 | – |
| COc1cnccc1C(=O)N(NC(=O)c1cccc(O)c1C)C(C)(C)C [RG-115595] | 2.1 | 33.2 10^−6 cm/s | 19.2 10^−6 cm/s | 19.6 10^−6 cm/s | 18.9 10^−6 cm/s | 30.7 10^−6 cm/s | 29.8 10^−6 cm/s | 31.7 10^−6 cm/s | No | 1.6 | – |
| CCCC(N(NC(=O)c1cccc(OC)c1C)C(=O)c1cc(C)cc(C)c1)C(C)(C)C (stereo not drawn) [RG-115823] | 3.3 | 24.2 10^−6 cm/s | 17.6 10^−6 cm/s | 17.4 10^−6 cm/s | 17.8 10^−6 cm/s | 17.1 10^−6 cm/s | 18.8 10^−6 cm/s | 15.4 10^−6 cm/s | No | 1.0 | Secreted Alkaline Phosphatase Day 2 ([4]; IP 26 nmol ligand, day 2): 3,788 ng/ml mouse sera; Secreted Alkaline Phosphatase Day 3 ([4]; IP 26 nmol ligand, day 3): 2,705 ng/ml mouse sera; Secreted Alkaline Phosphatase Day 7 ([4]; IP 26 nmol ligand, day 7): 373 ng/ml mouse sera; Secreted Alkaline Phosphatase (percentage of GS ™-E ligand induction) Day 2 ([4]; mouse serum, IP 2.6 μmol ligand 3 days after electroporation, day 2 after ligand): 129 percentage of GS ™-E ligand induction; Secreted Alkaline Phosphatase (percentage of GS ™-E ligand induction) Day 3 ([4]; mouse serum, IP 2.6 μmol ligand, day 3 after ligand): 183 percentage of GS ™-E ligand induction; Secreted Alkaline Phosphatase (percentage of GS ™-E ligand induction) Day 11 ([4]; mouse serum, IP 2.6 μmol ligand, day 11 after ligand): 2,652 percentage of GS ™-E ligand induction |
